A word on the IC50: it is the point on the concentration scale where inhibition reaches its midpoint.

This experiment concerns the target b-Raf(V600E) (Homo sapiens (Human), UniProt P15056, V600E). In words: Raf/Mek Amplified Luminescence Proximity Homogeneous Assay (Alpha Screen). Type of experiment: biochemical. Conditions: b-Raf(V600E) approximately 4 pM; biotinylated Mek, kinase dead approximately 10 nM; ATP 10 μM; pre-incubation 60 minutes; reaction 3 hours at room temperature; read-out: mut-B-RAF IC50. As for the experimental part: Raf/Mek Amplified Luminescence Proximity Homogeneous Assay
Assay buffer: 50 mM Tris, pH 7.5, 15 mM MgCl2, 0.01% Bovine Serum Albumin (BSA), 1 mM dithiothreitol (DTT) Stop buffer: 60 mM ethylenediaminetetraacetic acid (EDTA), 0.01% Tween® 20 Bead buffer: 50 mM Tris, pH 7.5, 0.01% Tween® 20 […]
biotinylated Mek, kinase dead
Alpha Screen detection kit (available from PerkinElmer™, #6760617R)
Anti phospho-MEK1/2 (available from Cell Signaling Technology, Inc. #9121) 384 well assay plates (White Greiner® plates, #781207) […]
biotinylated Mek, Kinase dead approximately 10 nM
Pre-incubation time with compounds 60 minutes at room temperature
Reaction time 1 or 3 hours at room temperature
Raf and biotinylated Mek, kinase dead, were combined at 2× final concentrations in assay buffer (50 mM Tris, pH 7.5, 15 mM MgCl2, 0.01% BSA and 1 mM DTT) and dispensed 10 μl per well in assay plates (Greiner white 384 well assay plates #781207) containing 0.5 μl of 40× of a raf kinase inhibitor test compound diluted in 100% DMSO. The plate was incubated for 60 minutes at room temperature.
The Raf kinase activity reaction was started by the addition of 10 μL per well of 2×ATP diluted in assay buffer. […] Phosphorylated product was measured using a rabbit anti-p-MEK (Cell Signaling, #9121) antibody and the Alpha Screen IgG (ProteinA) detection Kit (PerkinElmer #6760617R), by the addition of 30 μL to the well of a mixture of the antibody (1:2000 dilution) and detection beads (1:2000 dilution of both beads) in bead buffer (50 mM Tris, pH 7.5, 0.01% Tween20). The additions were carried out under dark conditions to protect the detection beads from light. A lid was placed on top of the plate and incubated for 1 hour at room temperature, then the luminescence was read on a PerkinElmer Envision instrument. The concentration of each compound for 50% inhibition (IC50) was calculated by non-linear regression using XL Fit data analysis software.

Sequence of b-Raf(V600E) (P15056 whole entry V600E): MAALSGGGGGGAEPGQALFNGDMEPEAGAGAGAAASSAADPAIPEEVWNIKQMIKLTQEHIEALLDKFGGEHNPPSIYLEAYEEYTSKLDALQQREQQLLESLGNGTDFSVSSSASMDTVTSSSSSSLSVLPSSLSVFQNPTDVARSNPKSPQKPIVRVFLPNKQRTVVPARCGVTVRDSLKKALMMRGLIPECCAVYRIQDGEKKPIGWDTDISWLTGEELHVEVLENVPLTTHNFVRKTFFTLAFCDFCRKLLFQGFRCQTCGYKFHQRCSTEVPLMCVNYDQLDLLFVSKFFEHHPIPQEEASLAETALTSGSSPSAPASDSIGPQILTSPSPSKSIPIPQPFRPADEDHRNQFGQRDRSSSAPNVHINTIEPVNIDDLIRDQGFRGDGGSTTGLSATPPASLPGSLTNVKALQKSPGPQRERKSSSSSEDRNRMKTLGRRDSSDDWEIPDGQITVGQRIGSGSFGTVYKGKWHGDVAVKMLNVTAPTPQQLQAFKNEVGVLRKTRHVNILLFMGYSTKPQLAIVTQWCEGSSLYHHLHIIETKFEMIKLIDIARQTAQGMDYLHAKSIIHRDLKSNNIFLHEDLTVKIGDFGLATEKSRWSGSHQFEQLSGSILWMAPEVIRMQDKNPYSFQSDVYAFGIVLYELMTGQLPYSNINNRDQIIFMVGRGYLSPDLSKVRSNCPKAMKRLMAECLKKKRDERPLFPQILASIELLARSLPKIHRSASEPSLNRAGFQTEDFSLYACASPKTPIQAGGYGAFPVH

As to `COC(=O)N[C@@H](C)CNc1nccc(-c2[nH]c(C3CCC3)nc2-c2cc(F)cc(NS(C)(=O)=O)c2Cl)n1` [Example 1BU, (S)-Methyl 1-(4-(4-(2-chloro-5-fluoro-3-(methylsulfonamido)phenyl)-2-cyclobutyl-1H-imidazol-5-yl)pyrimidin-2-ylamino)propan-2-ylcarbamate], the IC50 turned out to be 1 nM.

Take `COC(=O)N[C@@H](C)CNc1nccc(-c2[nH]c(C(C)(C)C)nc2-c2cc(Cl)cc(NS(=O)(=O)C(C)C)c2C)n1` [Example 1O, (S)-Methyl 1-(4-(2-tert-butyl-4-(5-chloro-2-methyl-3-(1-methylethylsulfonamido)phenyl)-1H-imidazol-5-yl)pyrimidin-2-ylamino)propan-2-ylcarbamate]: the IC50 stood at 67.2 nM. Next, `CCCNc1nccc(-c2[nH]c(C3CC3)nc2-c2cc(F)cc(NS(=O)(=O)CCC)c2Cl)n1` [Example 1AN, N-(2-Chloro-3-(2-cyclopropyl-5-(2-(propylamino)pyrimidin-4-yl)-1H-imidazol-4-yl)-5-fluorophenyl)propane-1-sulfonamide]: 0.39 nM; `CS(=O)(=O)Nc1cc(F)cc(-c2nc(C3CC3)[nH]c2-c2ccnc(N)n2)c1Cl` [Example 1BQ, N-(3-(5-(2-Aminopyrimidin-4-yl)-2-cyclopropyl-1H-imidazol-4-yl)-2-chloro-5-fluorophenyl)methanesulfonamide]: 12 nM; `COC(=O)N[C@@H](C)CNc1nccc(-c2[nH]c(-c3ccc(C(F)(F)F)cc3)nc2-c2cc(F)cc(NS(C)(=O)=O)c2Cl)n1` [Example 1BZ, (S)-Methyl 1-(4-(4-(2-chloro-5-fluoro-3-(methylsulfonamido)phenyl)-2-(4-(trifluoromethyl)phenyl)-1H-imidazol-5-yl)pyrimidin-2-ylamino)propan-2-ylcarbamate]: 2 nM. Consider `COC(=O)N[C@@H](C)CNc1nccc(-c2[nH]c(C(C)(C)C)nc2-c2cc(Cl)cc(NS(=O)(=O)C3CC3)c2C)n1` [Example 1N, (S)-Methyl 1-(4-(2-tert-butyl-4-(5-chloro-3-(cyclopropanesulfonamido)-2-methylphenyl)-1H-imidazol-5-yl)pyrimidin-2-ylamino)propan-2-ylcarbamate], for which the IC50 came out at 204 nM. With `COC(=O)N[C@@H](C)CNc1nccc(-c2nc(C(C)(C)C)[nH]c2-c2cc(NS(=O)(=O)C(C)C)cc(OC(F)F)c2)n1` [Example 1P, (S)-Methyl 1-(4-(2-tert-butyl-5-(3-(difluoromethoxy)-5-(1-methylethylsulfonamido)phenyl)-1H-imidazol-4-yl)pyrimidin-2-ylamino)propan-2-ylcarbamate] the figure was 11.2 nM; with `COC(=O)N[C@@H](C)CNc1nccc(-c2nc(C3(C)CC3)[nH]c2-c2cccc(NS(C)(=O)=O)c2Cl)n1` [Example 1AO, (S)-Methyl 1-(4-(5-(2-chloro-3-(methylsulfonamido)phenyl)-2-(1-methylcyclopropyl)-1H-imidazol-4-yl)pyrimidin-2-ylamino)propan-2-ylcarbamate], 1 nM; with `Cc1cc(NS(C)(=O)=O)c(F)c(-c2nc(C3(C)CC3)[nH]c2-c2ccnc(NCCC#N)n2)c1` [Example 1BA, N-(3-(5-(2-(2-Cyanoethylamino)pyrimidin-4-yl)-2-(1-methylcyclopropyl)-1H-imidazol-4-yl)-2-fluoro-5-methylphenyl)methanesulfonamide], 0.37 nM. Regarding `CCCS(=O)(=O)Nc1cc(Cl)cc(-c2[nH]c(C(C)(C)C)nc2-c2ccnc(NC[C@H](C)NC(=O)OC)n2)c1F` [Example 4F, (S)-Methyl 1-(4-(2-tert-butyl-5-(5-chloro-2-fluoro-3-(propylsulfonamido)phenyl)-1H-imidazol-4-yl)pyrimidin-2-ylamino)propan-2-ylcarbamate], the IC50 stood at 0.53 nM. On to `CCCS(=O)(=O)Nc1cc(Cl)cc(-c2nc(C(C)(C)C)[nH]c2-c2ccnc(NC[C@H](C)NC(=O)OC)n2)c1` [Example 1E, (S)-methyl 1-(4-(2-tert-butyl-4-(3-chloro-5-(propylsulfonamido)phenyl)-1H-imidazol-5-yl)pyrimidin-2-ylamino)propan-2-ylcarbamate], for which the half-inhibitory concentration (IC50) was 0.1 nM. As to `COC(=O)N[C@@H](C)CNc1nccc(-c2[nH]c(C3CC3)nc2-c2cc(F)cc(NS(=O)(=O)C3CC3)c2Cl)n1` [Example 1AE, (S)-Methyl 1-(4-(4-(2-chloro-3-(cyclopropanesulfonamido)-5-fluorophenyl)-2-cyclopropyl-1H-imidazol-5-yl)pyrimidin-2-ylamino)propan-2-ylcarbamate], the IC50 was 0.3 nM. Take `COC(=O)N[C@@H](C)CNc1nccc(-c2[nH]c(C3CC3)nc2-c2cc(Cl)cc(NS(=O)(=O)c3ccc(C(F)(F)F)cc3)c2F)n1` [Example 1BN, (S)-Methyl 1-(4-(4-(5-chloro-2-fluoro-3-(4-(trifluoromethyl)phenylsulfonamido)phenyl)-2-cyclopropyl-1H-imidazol-5-yl)pyrimidin-2-ylamino)propan-2-ylcarbamate]: the IC50 is 7 nM. Next, `CCCS(=O)(=O)Nc1cc(F)cc(-c2nc(C3CC3)[nH]c2-c2ccnc(N)n2)c1Cl` [Example 1BS, N-(3-(5-(2-Aminopyrimidin-4-yl)-2-cyclopropyl-1H-imidazol-4-yl)-2-chloro-5-fluorophenyl)propane-1-sulfonamide]: 0.2 nM; `CCNc1nccc(-c2[nH]c(C3CC3)nc2-c2cc(F)cc(NS(C)(=O)=O)c2Cl)n1` [Example 1AQ, N-(2-Chloro-3-(2-cyclopropyl-5-(2-(ethylamino)pyrimidin-4-yl)-1H-imidazol-4-yl)-5-fluorophenyl)methanesulfonamide]: 11 nM; `COC(=O)N[C@@H](C)CNc1nccc(-c2nc(C3CC3)[nH]c2-c2cc(Cl)cc(NS(=O)(=O)CC3CC3)c2F)n1` [Example 1AC, (S)-Methyl 1-(4-(5-(5-chloro-3-(cyclopropylmethylsulfonamido)-2-fluorophenyl)-2-cyclopropyl-1H-imidazol-4-yl)pyrimidin-2-ylamino)propan-2-ylcarbamate]: 0.26 nM. `COC(=O)N[C@@H](C)CNc1nccc(-c2[nH]c(C(C)(C)C)nc2-c2cc(NS(=O)(=O)C3CC3)c(C)c(OC)c2)n1` [Example 1L, (S)-Methyl 1-(4-(2-tert-butyl-4-(3-(cyclopropanesulfonamido)-5-methoxy-4-methylphenyl)-1H-imidazol-5-yl)pyrimidin-2-ylamino)propan-2-ylcarbamate]: the half-inhibitory concentration (IC50) amounted to 157 nM. In the case of `COC(=O)N[C@@H](C)CNc1nccc(-c2[nH]c(C3CC3)nc2-c2cc(Cl)cc(NS(C)(=O)=O)c2Cl)n1` [Example 1X, (S)-Methyl 1-(4-(2-cyclopropyl-4-(2,5-dichloro-3-(methylsulfonamido)phenyl)-1H-imidazol-5-yl)pyrimidin-2-ylamino)propan-2-ylcarbamate], the IC50 stood at 0.18 nM. Regarding `CS(=O)(=O)Nc1cc(Cl)cc(-c2nc(C3CC3)[nH]c2-c2ccnc(NCCC#N)n2)c1F` [Example 2A, N-(5-Chloro-3-(5-(2-(2-cyanoethylamino)pyrimidin-4-yl)-2-cyclopropyl-1H-imidazol-4-yl)-2-fluorophenyl)methanesulfonamide], the IC50 stood at 0.08 nM. With `CNc1nccc(-c2[nH]c(C3CC3)nc2-c2cc(F)cc(NS(C)(=O)=O)c2Cl)n1` [Example 1BW, N-(2-Chloro-3-(2-cyclopropyl-5-(2-(methylamino)pyrimidin-4-yl)-1H-imidazol-4-yl)-5-fluorophenyl)methanesulfonamide], the IC50 was 31 nM. Next, `COC(=O)N[C@@H](C)CNc1nccc(-c2[nH]c(C(C)(C)C)nc2-c2cc(C)cc(NS(=O)(=O)C(C)C)c2)n1` [Example 1Q, (S)-Methyl 1-(4-(2-tert-butyl-4-(3-methyl-5-(1-methylethylsulfonamido)phenyl)-1H-imidazol-5-yl)pyrimidin-2-ylamino)propan-2-ylcarbamate]: 3.12 nM; `CCCS(=O)(=O)Nc1cccc(-c2nc(C(C)(C)C)[nH]c2-c2ccnc(NC[C@H](C)NC(=O)OC)n2)c1F` [Example 4B, (S)-Methyl 1-(4-(2-tert-butyl-4-(2-fluoro-3-(propylsulfonamido)phenyl)-1H-imidazol-5-yl)pyrimidin-2-ylamino)propan-2-ylcarbamate]: 0.38 nM; `O=S(=O)(Nc1cc(F)cc(-c2nc(C3CC3)[nH]c2-c2ccncn2)c1Cl)c1c(F)cccc1F` [Example 2I, N-(2-Chloro-3-(2-cyclopropyl-5-(pyrimidin-4-yl)-1H-imidazol-4-yl)-5-fluorophenyl)-2,6-difluorobenzenesulfonamide]: 1 nM.
